Measured values: publication PMC2653417 (Bioorganic & medicinal chemistry letters, 2008)

Key:
Hsp90 [1] = target: T1, Hsp90 (Homo sapiens, UniProt P07900); details: cited from earlier work
Hsp90 [2] = target: T1, Hsp90; details: cited from earlier work; remark: listed apart in the source
[3] = tested on: HER2 over-expressing SKBr3 breast cancer cells; assay: cell growth inhibition assay; type: cell-based; details: Homo sapiens, SK-BR-3, 72 h, read-out: IC50 SKBr3
Raf-1 = assay: Western blot assay, client protein degradation; type: cell-based
PRAS40 = assay: Western blot assay, client protein degradation; type: cell-based
[4] = read-out: IC50 cell growth inhibition; cited from earlier work
Hsp90 [5] = target: T1, Hsp90; assay: fluorescent polarization

Row | IC50 [3] | SMILES | effect on Raf-1 degradation (Raf-1) | effect on PRAS40 degradation (PRAS40) | also measured
1 | 6 µM | COc1ccc(O)c(O)c1-c1cc(NS(=O)(=O)c2cc(Cl)ccc2Cl)ccc1N [Compound 13] | neither had any effect | neither had any effect | IC50 FP (Hsp90 [5]; mean of 2 independent determinations, maximum concentration tested 50 µM): sub-micromolar
2 | 4.4 µM | O=S(=O)(Nc1ccc(O)c(-c2c(O)ccc3c2OCO3)c1)c1cc(Cl)ccc1Cl [Compound 17] | – | – | –

More lines, now with the values behind:

Row | SMILES | IC50 [3] | effect on Raf-1 degradation (Raf-1) | effect on PRAS40 degradation (PRAS40) | also measured
3 | O=S(=O)(Nc1ccc(O)c(-c2c(O)ccc3ccccc23)c1)c1ccccc1 [Compound 1] | – | – | – | activity in malachite green assay (Hsp90 [1]): low micromolar activity; activity in FP assay (Hsp90 [2]): low micromolar activity
4 | O=S(=O)(Nc1ccc(O)c(-c2c(O)ccc3ccccc23)c1)c1cc(Cl)ccc1Cl [Compound 2] | 6.5 µM | neither had any effect | neither had any effect | IC50 [4]: 29 µM
5 | O=S(=O)(Nc1ccc(O)c(-c2ccccc2O)c1)c1cc(Cl)ccc1Cl [Compound 9a] | – | – | – | fold less activity than 2 in FP assay (Hsp90 [5]; relative to compound 2): about 20 fold
